Like-named read-outs stand apart in the source and are kept apart here.
Test system: genotype A, "Long" strain RSV
Experiment: RSV-A assay: CPE protection in HEp-2 cells, ATPlite readout
Format: cell-based, human respiratory syncytial virus
Excerpt: HEp-2 cells, (originally derived from tumors grown in irradiated-cortisonised weanling rats that had been injected with epidermoid carcinoma tissue from a person's larynx, but later found to be indistinguishable from HeLa cells by PCR DNA analysis), were used for the culturing of genotype A, “Long” strain RSV. Flasks were inoculated with RSV and viral stocks were collected once cytopathic effect (CPE) was greater than 90%. Viral stocks in 25% sucrose media were snap frozen using liquid nitrogen to increase viral stability. Viral stock titers were quantified by tissue culture infectious dose 50% (TCID50) using 8,000 cells per well and 3-fold viral dilutions across a 96-well plate, cultured for 4 days. Viral stock titers were also quantified by a plaque forming unit assay, as described elsewhere.
Following extensive parameter testing, the final assay is run as follows: HEp-2 cells are seeded into the inner 60 wells of a 96-well plate at 8,000 cells per well in a volume of 50 μL using Growth Media (DMEM without phenol red, 1% L-Glut, 1% Penn/Strep, 1% nonessential amino acids, 10% heat-inactivated FBS). 2-fold serial dilutions of control and test compounds are added to the wells in duplicate in a total volume of 25 μL. Viral stock is then added to the wells at a multiplicity of infection (MOI) of 0.1 in a volume of 25 μL, bringing the total volume of each well to 100 μL. The MOI is calculated using the PFU/mL, or TCID50 if unavailable. Each 96-well plate has a control column of 6 wells with cells and virus but no compound (negative control, max CPE), a column with cells but no compound or virus (positive control, minimum CPE), and a column with no cells or virus or compound (background plate/reagent control). The control wells with cells but no virus are given an additional 25 μL of growth media containing an equal quantity of sucrose as those wells receiving the viral stock in order to keep consistent in media and volume conditions. The outer wells of the plate are filled with 125 μL of moat media (DMEM, 1% Penn/Strep) to act as a thermal and evaporative moat around the test wells. Following a 5-day incubation period, the plates are read using ATPlite (50 μL added per well), which quantifies the amount of ATP (a measure of cell health) present in each well. Assay plates are read using the Envision luminometer. In parallel, cytotoxicity is examined on an additional 96-well plate treated in an identical manner, but substituting the 25 μL of viral stock for 25 μL of growth media. […] EC50 ranges are as follows: A <0.4 μM; B 0.4-0.8 μM; C >0.8 μM and CC50 ranges are as follows: A >50 μM; B 10-50 μM; C <10 μM.

[1] = human respiratory syncytial virus, HEp-2, read-out: Human RSV-A (“Long” strain) EC50
[2] = HEp-2 cells, RSV-A Long strain, ATPlite readout, read-out: Human RSV-A (“Long” strain) EC50

Compound	EC50 [1] [nM]	EC50 [2] [nM]
O=C1Nc2ccccc2C(c2ccccc2)=N[C@@H]1Nc1nnc(-c2ccc(=O)[nH]c2N2CCOCC2)o1 [Example 156, (S)-3-((5-(2-morpholino-6-oxo-1,6-dihydropyridin-3-yl)-1,3,4-oxadiazol-2-yl)amino)-5-phenyl-1,3-dihydro-2H-benzo[e][1,4]diazepin-2-one]	> 800	
N#Cc1ccc(-c2nnc(N[C@H]3N=C(c4ccccc4)c4ccccc4NC3=O)o2)c(N2CCOCC2)c1 [Example 157]	< 400	
O=C1Nc2ccccc2C(c2ccccc2)=N[C@@H]1Nc1nnc(-c2ccc(F)cc2N2CCOCC2)o1 [Example 159]	< 400	
O=C1Nc2ccccc2C(c2ccccc2)=N[C@@H]1Nc1nnc(-c2cnc(N3CCOCC3)cn2)o1 [Example 161]	> 800	
O=C1Nc2ccccc2C(c2ccccc2)=N[C@@H]1Nc1nnc(-c2cnc(C(F)(F)F)nc2N2CCOCC2)o1 [Example 162]	< 400	
O=C1Nc2ccccc2C(c2ccccc2)=N[C@@H]1Nc1nnc(-c2nc3ccccn3c2N2CCOCC2)o1 [Example 163]	> 800	
Cn1cc(N2CCOCC2)c(-c2nnc(N[C@H]3N=C(c4ccccc4)c4ccccc4NC3=O)o2)n1 [Example 164]	< 400	
O=C1Nc2ccccc2C(c2ccccc2)=N[C@@H]1Nc1nnc(-c2cnc(N3CCOCC3)nc2)o1 [Example 165]	400 to 800	
O=C1Nc2ccccc2C(c2ccccc2)=N[C@@H]1Nc1nnc(-c2cnc(N3CC4CCC(C3)O4)nc2)o1 [Example 166]	> 800	
O=C1Nc2ccccc2C(c2ccccc2)=N[C@@H]1Nc1nnc(-c2cnc(C3CC3)nc2N2CCOCC2)o1 [Example 167]	< 400	
O=C1Nc2ccccc2C(c2ccccc2)=NC1Nc1nnc(-c2c(F)cc(F)cc2N2CCOCC2)o1 (stereo not drawn) [Example 170]		> 800
O=C1Nc2ccccc2C(c2ccccc2)=NC1Nc1nnc(-c2c(F)cc(F)cc2N2CCOCC2)o1 (stereo not drawn) [Example 171]		> 800
O=C1Nc2ccccc2C(c2ccccc2)=N[C@@H]1Nc1nnc(-c2cnc(-n3cccn3)nc2N2CCOCC2)o1 [Example 172]	> 800	
O=C1Nc2ccccc2C(c2ccccc2)=N[C@@H]1Nc1nnc(-c2cnc(-n3cncn3)nc2N2CCOCC2)o1 [Example 173]	> 800	
N#Cc1cnc(N2CCOCC2)c(-c2nnc(N[C@H]3N=C(c4ccccc4)c4ccccc4NC3=O)o2)c1 [Example 174]	< 400	
CCc1nc(N2CCOCC2)c(-c2nnc(N[C@H]3N=C(c4ccccc4)c4ccccc4NC3=O)o2)cc1C#N [Example 176]	< 400	
Cn1ncc(-c2nnc(N[C@H]3N=C(c4ccccc4)c4ccccc4NC3=O)o2)c1N1CCOCC1 [Example 177]	> 800	
Cn1ncc(N2CCOCC2)c1-c1nnc(N[C@H]2N=C(c3ccccc3)c3ccccc3NC2=O)o1 [Example 178]	400 to 800	
O=C1Nc2ccccc2C(c2ccccc2)=N[C@@H]1Nc1nnc(-c2sc3ncccc3c2N2CCOCC2)o1 [Example 180]	< 400	
Cn1cc(-c2nnc(N[C@H]3N=C(c4ccccc4)c4ccccc4NC3=O)o2)c(N2CCOCC2)n1 [Example 181]	< 400	
O=C1Nc2ccccc2C(c2ccccc2)=N[C@@H]1Nc1nnc(-c2sc(Br)cc2N2CCOCC2)o1 [Example 182]	< 400	

Compound	EC50 [1] [nM]	EC50 [2] [nM]
N#Cc1ccc(-c2nnc(NC3N=C(c4ccccc4)c4ccccc4NC3=O)o2)s1 (stereo not drawn) [Example 183]	< 400	
O=C1Nc2ccccc2C(c2ccccc2)=NC1Nc1nnc(-c2ccc(N3CCCC3)cc2)o1 (stereo not drawn) [Example 184]	400 to 800	
COc1cnc(-c2nnc(NC3N=C(c4ccccc4)c4ccccc4NC3=O)o2)c(F)c1 (stereo not drawn) [Example 185]	> 800	
Cn1nnc(-c2ccc(-c3nnc(NC4N=C(c5ccccc5)c5ccccc5NC4=O)o3)cc2)n1 (stereo not drawn) [Example 186]	> 800	
Cc1nc2ccc(-c3nnc(NC4N=C(c5ccccc5)c5ccccc5NC4=O)o3)cc2s1 (stereo not drawn) [Example 187]	400 to 800	
CC(C)c1nnc(NC2N=C(c3ccccc3)c3ccccc3NC2=O)o1 (stereo not drawn) [Example 188]	> 800	
CC(C)(C)c1nnc(NC2N=C(c3ccccc3)c3ccccc3NC2=O)o1 (stereo not drawn) [Example 189]	> 800	
CCCc1nnc(NC2N=C(c3ccccc3)c3ccccc3NC2=O)o1 (stereo not drawn) [Example 190]	> 800	
COCc1nnc(NC2N=C(c3ccccc3)c3ccccc3NC2=O)o1 (stereo not drawn) [Example 191]	> 800	
O=C1Nc2ccccc2C(c2ccccc2)=NC1Nc1nnc(CCC(F)(F)F)o1 (stereo not drawn) [Example 192]	> 800	
N#CCCc1nnc(NC2N=C(c3ccccc3)c3ccccc3NC2=O)o1 (stereo not drawn) [Example 193]	> 800	
CS(=O)(=O)Cc1nnc(NC2N=C(c3ccccc3)c3ccccc3NC2=O)o1 (stereo not drawn) [Example 194]	> 800	
CC1(c2nnc(NC3N=C(c4ccccc4)c4ccccc4NC3=O)o2)CC1 (stereo not drawn) [Example 195]	> 800	
O=C1Nc2ccccc2C(c2ccccc2)=NC1Nc1nnc(C2CCC2)o1 (stereo not drawn) [Example 196]	> 800	
O=C1Nc2ccccc2C(c2ccccc2)=NC1Nc1nnc(C2CCCC2)o1 (stereo not drawn) [Example 197]	> 800	
O=C1Nc2ccccc2C(c2ccccc2)=NC1Nc1nnc([C@H]2CCCO2)o1 (stereo partly drawn) [Example 198]	> 800	
O=C1Nc2ccccc2C(c2ccccc2)=NC1Nc1nnc(CCc2ccccc2)o1 (stereo not drawn) [Example 199]	> 800	
Cc1nc(-c2nnc(NC3N=C(c4ccccc4)c4ccccc4NC3=O)o2)ccc1C#N (stereo not drawn) [Example 200]	400 to 800	
CN1C(=O)C(Nc2nnc(-c3ccc(F)cc3)o2)N=C(c2ccccc2)c2ccccc21 (stereo not drawn) [Example 201]	> 800	
O=C1Nc2ccccc2C(c2ccccc2)=NC1Nc1nnc(-c2ccc(-n3ccc(C(F)(F)F)n3)cc2)o1 (stereo not drawn) [Example 202]	> 800	
O=C1Nc2ccccc2C(c2ccccc2)=NC1Nc1nnc(CC(F)(F)F)o1 (stereo not drawn) [Example 203]	> 800	

Compound	EC50 [1] [nM]	EC50 [2] [nM]
O=C1Nc2ccccc2C(c2ccccc2)=NC1Nc1nnc(C2(F)CC2)o1 (stereo not drawn) [Example 204]	> 800	
CC1(C)C[C@@H]1c1nnc(NC2N=C(c3ccccc3)c3ccccc3NC2=O)o1 (stereo partly drawn) [Example 205]	> 800	
CC1(C)CC(c2nnc(NC3N=C(c4ccccc4)c4ccccc4NC3=O)o2)C1 (stereo not drawn) [Example 206]	> 800	
O=C1Nc2ccccc2C(c2ccccc2)=NC1Nc1nnc([C@@H]2CCCO2)o1 (stereo partly drawn) [Example 207]	> 800	
CC(C)(Cc1ccccc1)c1nnc(NC2N=C(c3ccccc3)c3ccccc3NC2=O)o1 (stereo not drawn) [Example 208]	> 800	
CN(c1nnc(-c2ccc(F)cc2)o1)C1N=C(c2ccccc2)c2ccccc2NC1=O (stereo not drawn) [Example 209]	> 800	
CN1CCN(c2ccc(-c3nnc(NC4N=C(c5ccccc5)c5ccccc5NC4=O)o3)cc2)CC1 (stereo not drawn) [Example 210]	> 800	
O=C1Nc2ccccc2C(c2ccccc2)=NC1Nc1nnc(-c2cccc(-n3ccnc3)c2)o1 (stereo not drawn) [Example 212]	> 800	
CC(C)(O)c1nnc(NC2N=C(c3ccccc3)c3ccccc3NC2=O)o1 (stereo not drawn) [Example 213]	> 800	
O=C1Nc2ccccc2C(c2ccccc2)=NC1Nc1nnc(C2CC(F)(F)C2)o1 (stereo not drawn) [Example 214]	> 800	
O=C1Nc2ccccc2C(c2ccccc2)=NC1Nc1nnc(C2CCOC2)o1 (stereo not drawn) [Example 215]	> 800	
O=C1Nc2ccccc2C(c2ccccc2)=NC1Nc1nnc(-c2ccc(-n3cncn3)c(F)c2)o1 (stereo not drawn) [Example 216]	400 to 800	
Cc1cc(-c2nnc(NC3N=C(c4ccccc4)c4ccccc4NC3=O)o2)ccc1-n1cncn1 (stereo not drawn) [Example 217]	400 to 800	
Cc1cc(-n2cncn2)ccc1-c1nnc(NC2N=C(c3ccccc3)c3ccccc3NC2=O)o1 (stereo not drawn) [Example 218]	> 800	
COc1cc(-c2nnc(NC3N=C(c4ccccc4)c4ccccc4NC3=O)o2)ccc1-n1cnc(C)c1 (stereo not drawn) [Example 219]	> 800	
O=C1Nc2ccccc2C(c2ccccc2)=NC1Nc1nnc(-c2ccc(OC3CCOCC3)cc2)o1 (stereo not drawn) [Example 220]	> 800	
O=C1Nc2ccccc2C(c2ccccc2)=NC1Nc1nnc(C2CC3(CCNCC3)C2)o1 (stereo not drawn) [Example 222]	> 800	
CC1(c2nnc(NC3N=C(c4ccccc4)c4ccccc4NC3=O)o2)CCNC1 (stereo not drawn) [Example 223]	> 800	
O=C1Nc2ccccc2C(c2ccccc2)=NC1Nc1nnc(-c2ccc(-n3cncn3)nc2)o1 (stereo not drawn) [Example 225]	> 800	
O=C1Nc2ccccc2C(c2ccccc2)=NC1Nc1nnc(-c2ccccc2-c2ccncc2)o1 (stereo not drawn) [Example 226]	> 800	
O=C1Nc2ccccc2C(c2ccccc2)=NC1Nc1nnc([C@@H]2CCCN2C2CCNCC2)o1 (stereo partly drawn) [Example 227]	> 800	

Reference: patent US12268694B2, “Combination pharmaceutical agents as RSV inhibitors” (Enanta Pharmaceuticals, Inc., priority 2017, dated 2025)
